According to patent US6686343B1, “Triazolopurine derivatives, pharmaceutical compositions containing the derivatives, and adenosine A3 receptor affinitive agents” (Otsuka Pharmaceutical Factory, Inc., priority 1999, dated 2004):

Row | Compound | melting point
1 | CCOP(=O)(Cc1nc2nc[nH]c2c2nc(-c3ccc(C(C)(C)C)cc3)nn12)OCC | 162 to 166 °C
2 | CCOP(=O)(Cc1nc2nc[nH]c2c2nc(-c3ccc(C(F)(F)F)cc3)nn12)OCC | 196 to 198 °C
3 | CCOP(=O)(O)Cc1nc2nc[nH]c2c2nc(-c3ccc(C(F)(F)F)cc3)nn12 | 268 to 270 °C
4 | CCOCc1nc2nc[nH]c2c2nc(-c3cc(OC)c(OC)c(OC)c3)nn12 [Example 5, 5-ethoxymethyl-8-(3,4,5-trimethoxyphenyl)-1H-1,2,4-triazolo[5,1-i]purine] | 254 to 255.5 °C
5 | COCc1nc2nc[nH]c2c2nc(-c3cc(OC)c(OC)c(OC)c3)nn12 [Example 6, 5-methoxymethyl-8-(3,4,5-trimethoxyphenyl)-1H-1,2,4-triazolo[5,1-i]purine] | ≥ 280 °C
6 | CCCOc1ccc(-c2nc3c4[nH]cnc4nc(COCC)n3n2)cc1 [Example 8, 5-ethoxymethyl-8-(4-n-propoxyphenyl)-1H-1,2,4-triazolo[5,1-i]purine] | 262 to 263 °C
7 | CCCOc1ccc(-c2nc3c4[nH]cnc4nc(COC)n3n2)cc1 [Example 9, 5-methoxymethyl-8-(4-n-propoxyphenyl)-1H-1,2,4-triazolo[5,1-i]purine] | ≥ 280 °C
8 | CCCOc1ccc(-c2nc3c4[nH]cnc4nc(CCOC)n3n2)cc1 [Example 10, 5-(2-methoxyethyl)-8-(4-n-propoxyphenyl)-1H-1,2,4-triazolo[5,1-i]purine] | 231.5 to 232.5 °C
9 | CCOCc1nc2nc[nH]c2c2nc(-c3ccc(C(C)(C)C)cc3)nn12 [Example 14, 8-(4-t-butylphenyl)-5-ethoxymethyl-1H-1,2,4-triazolo[5,1-i]purine] | 243 to 244 °C
10 | COCc1nc2nc[nH]c2c2nc(-c3ccc(C(C)(C)C)cc3)nn12 [Example 15, 8-(4-t-butylphenyl)-5-methoxymethyl-1H-1,2,4-triazolo[5,1-i]purine] | ≥ 280 °C
11 | COCCc1nc2nc[nH]c2c2nc(-c3ccc(C(C)(C)C)cc3)nn12 [Example 16, 8-(4-t-butylphenyl)-5-(2-methoxyethyl)-1H-1,2,4-triazolo[5,1-i]purine] | 237 to 239 °C
12 | CSCCc1nc2nc[nH]c2c2nc(-c3ccc(C(C)(C)C)cc3)nn12 [Example 17, 8-(4-t-butylphenyl)-5-(2-methylthioethyl)-1H-1,2,4-triazolo[5,1-i]purine] | 229 to 231 °C
13 | COc1cc(-c2nc3c4[nH]cnc4nc(CCSC)n3n2)cc(OC)c1OC [Example 19, 5-(2-methylthioethyl)-8-(3,4,5-trimethoxyphenyl)-1H-1,2,4-triazolo[5,1-i]purine] | 233 to 234 °C
14 | COC(=O)CCCc1nc2nc[nH]c2c2nc(-c3ccc(C(C)(C)C)cc3)nn12 [Example 23, 8-(4-t-butylphenyl)-5-(3-methoxycarbonylpropyl)-1H-1,2,4-triazolo[5,1-i]purine] | 169 to 172.5 °C
15 | COCc1nc2nc[nH]c2c2nc(-c3ccc(C(F)(F)F)cc3)nn12 [Example 24, 5-methoxymethyl-8-(4-trifluoromethylphenyl)-1H-1,2,4-triazolo[5,1-i]purine] | ≥ 280 °C
16 | CCOCc1nc2nc[nH]c2c2nc(-c3ccc(C(F)(F)F)cc3)nn12 [Example 25, 5-ethoxymethyl-8-(4-trifluoromethylphenyl)-1H-1,2,4-triazolo[5,1-i]purine] | ≥ 280 °C
17 | COCCc1nc2nc[nH]c2c2nc(-c3ccc(C(F)(F)F)cc3)nn12 [Example 26, 5-(2-methoxyethyl)-8-(4-trifluoromethylphenyl)-1H-1,2,4-triazolo[5,1-i]purine] | ≥ 256 °C (dec.)
18 | CSCCc1nc2nc[nH]c2c2nc(-c3ccc(C(F)(F)F)cc3)nn12 [Example 27, 5-(2-methylthioethyl)-8-(4-trifluoromethylphenyl)-1H-1,2,4-triazolo[5,1-i]purine] | ≥ 255 °C (dec.)
19 | COCCc1nc2nc[nH]c2c2nc(-c3ccc(Cl)cc3)nn12 [Example 28, 8-(4-chlorophenyl)-5-(2-methoxyethyl)-1H-1,2,4-triazolo[5,1-i]purine] | ≥ 278 °C (dec.)
20 | CSCCc1nc2nc[nH]c2c2nc(-c3ccc(Cl)cc3)nn12 [Example 29, 8-(4-chlorophenyl)-5-(2-methylthioethyl)-1H-1,2,4-triazolo[5,1-i]purine] | ≥ 257 °C (dec.)
21 | COC(=O)CCCc1nc2nc[nH]c2c2nc(-c3ccc(Cl)cc3)nn12 [Example 30, 8-(4-chlorophenyl)-5-(3-methoxycarbonylpropyl)-1H-1,2,4-triazolo[5,1-i]purine] | 261 to 262.5 °C
22 | CC(C)(C)c1ccc(-c2nc3c4[nH]cnc4nc(CCCC(=O)O)n3n2)cc1 [Example 35, 8-(4-t-butylphenyl)-5-(3-carboxypropyl)-1H-1,2,4-triazolo[5,1-i]purine] | ≥ 280 °C
23 | C[S+]([O-])CCc1nc2nc[nH]c2c2nc(-c3ccc(C(C)(C)C)cc3)nn12 (stereo not shown) [Example 39, 8-(4-t-butylphenyl)-5-(2-methylsulfinylethyl)-1H-1,2,4-triazolo[5,1-i]purine] | ≥ 162 °C (dec.)
24 | C[S+]([O-])CCc1nc2nc[nH]c2c2nc(-c3ccc(C(F)(F)F)cc3)nn12 (stereo not shown) [Example 40, 5-(2-methylsulfinylethyl)-8-(4-trifluoromethylphenyl)-1H-1,2,4-triazolo[5,1-i]purine] | ≥ 203 °C (dec.)
25 | CS(=O)(=O)CCc1nc2nc[nH]c2c2nc(-c3ccc(Cl)cc3)nn12 [Example 42, 8-(4-chlorophenyl)-5-(2-methylsulfonylethyl)-1H-1,2,4-triazolo[5,1-i]purine] | ≥ 244 °C (dec.)
26 | CC(C)(C)c1ccc(-c2nc3c4[nH]cnc4nc(CCS(C)(=O)=O)n3n2)cc1 [Example 43, 8-(4-t-butylphenyl)-5-(2-methylsulfonylethyl)-1H-1,2,4-triazolo[5,1-i]purine] | ≥ 201 °C (dec.)
27 | CS(=O)(=O)CCc1nc2nc[nH]c2c2nc(-c3ccc(C(F)(F)F)cc3)nn12 [Example 44, 5-(2-methylsulfonylethyl)-8-(4-trifluoromethylphenyl)-1H-1,2,4-triazolo[5,1-i]purine] | ≥ 261 °C (dec.)

The remaining lines, values ahead:

Row | melting point | Compound
28 | 188 to 192 °C | CCOP(=O)(Cc1nc2nc[nH]c2c2nc(-c3ccc(-c4ccccc4)cc3)nn12)OCC
29 | ≥ 110 °C | CCOP(=O)(CCc1nc2nc[nH]c2c2nc(-c3ccc(-c4ccccc4)cc3)nn12)OCC
30 | 175 to 178 °C | CCOP(=O)(CCCc1nc2nc[nH]c2c2nc(-c3ccc(-c4ccccc4)cc3)nn12)OCC
31 | 274 to 277 °C | CCOP(=O)(O)Cc1nc2nc[nH]c2c2nc(-c3ccc(-c4ccccc4)cc3)nn12
32 | 217.5 to 218.5 °C | COCCc1nc2nc[nH]c2c2nc(-c3ccccc3)nn12 (hydrate or solvate) [Example 13, 5-(2-methoxyethyl)-8-phenyl-1H-1,2,4-triazolo[5,1-i]purine]
33 | ≥ 280 °C | COCc1nc2nc[nH]c2c2nc(-c3ccc(-c4ccccc4)cc3)nn12 [Example 2, 8-(4-biphenylyl)-5-methoxymethyl-1H-1,2,4-triazolo[5,1-i]purine]
34 | 249 to 251 °C | CSCCc1nc2nc[nH]c2c2nc(-c3ccc(-c4ccccc4)cc3)nn12 [Example 4, 8-(4-biphenylyl)-5-(2-methylthioethyl)-1H-1,2,4-triazolo[5,1-i]purine]
35 | 247 to 249 °C | CCOCc1nc2nc[nH]c2c2nc(-c3ccccc3)nn12 [Example 11, 5-ethoxymethyl-8-phenyl-1H-1,2,4-triazolo[5,1-i]purine]
36 | ≥ 280 °C | COCc1nc2nc[nH]c2c2nc(-c3ccccc3)nn12 [Example 12, 5-methoxymethyl-8-phenyl-1H-1,2,4-triazolo[5,1-i]purine]
37 | 228 to 230 °C | COC(=O)CCCc1nc2nc[nH]c2c2nc(-c3ccccc3)nn12 [Example 18, 5-(3-methoxycarbonylpropyl)-8-phenyl-1H-1,2,4-triazolo[5,1-i]purine]
38 | 241.5 to 244 °C | CCOC(=O)CCc1nc2nc[nH]c2c2nc(-c3ccc(-c4ccccc4)cc3)nn12 [Example 20, 8-(4-biphenylyl)-5-(2-ethoxycarbonylethyl)-1H-1,2,4-triazolo[5,1-i]purine]
39 | 243 to 245.5 °C | COC(=O)CCCc1nc2nc[nH]c2c2nc(-c3ccc(-c4ccccc4)cc3)nn12 [Example 21, 8-(4-biphenylyl)-5-(3-methoxycarbonylpropyl)-1H-1,2,4-triazolo[5,1-i]purine]
40 | 241 to 243 °C | CCOC(=O)CCCCc1nc2nc[nH]c2c2nc(-c3ccc(-c4ccccc4)cc3)nn12 [Example 22, 8-(4-biphenylyl)-5-(4-ethoxycarbonylbutyl)-1H-1,2,4-triazolo[5,1-i]purine]
41 | ≥ 218 °C (dec.) | C[S+]([O-])CCc1nc2nc[nH]c2c2nc(-c3ccc(Cl)cc3)nn12 (stereo not shown) [Example 38, 8-(4-chlorophenyl)-5-(2-methylsulfinylethyl)-1H-1,2,4-triazolo[5,1-i]purine]
42 | ≥ 280 °C | c1ccc(-c2ccc(-c3nc4c5[nH]cnc5nc(C5CCCCC5)n4n3)cc2)cc1 [Example 45, 8-(4-biphenylyl)-5-cyclohexyl-1H-1,2,4-triazolo[5,1-i]purine]
43 | ≥ 280 °C | c1ccc(-c2ccc(-c3nc4c5[nH]cnc5nc(C5CCCC5)n4n3)cc2)cc1 [Example 46, 8-(4-biphenylyl)-5-cyclopentyl-1H-1,2,4-triazolo[5,1-i]purine]
44 | ≥ 280 °C | FC(F)(F)c1nc2nc[nH]c2c2nc(-c3ccc(-c4ccccc4)cc3)nn12 [Example 47, 8-(4-biphenylyl)-5-trifluoromethyl-1H-1,2,4-triazolo[5,1-i]purine]
45 | 284 to 286 °C | CSCc1nc2nc[nH]c2c2nc(-c3ccc(-c4ccccc4)cc3)nn12 [Example 48, 8-(4-biphenylyl)-5-methylthiomethyl-1H-1,2,4-triazolo[5,1-i]purine]
46 | 264 to 266 °C | CCSCc1nc2nc[nH]c2c2nc(-c3ccc(-c4ccccc4)cc3)nn12 [Example 49, 8-(4-biphenylyl)-5-ethylthiomethyl-1H-1,2,4-triazolo[5,1-i]purine]
